The numbers were not newly measured in patent EP1147767A1 (J.B. Chemicals & Pharmaceuticals Ltd., priority 2000, dated 2001), which cites them from elsewhere.

The structures appear in SMILES notation.

The conditions of data set [1]: 200mg 3 times daily, rectally; Ramella et al. 1993.
For data set [2] the following is noted: animal model; comparison with other NSAIDs.
The conditions of data set [3]: 200 mg twice daily; Pierleoni et al. 1993.
For data set [4] the following is noted: 200 mg/day; respiratory tract infections, ENT disorders, dysmenorrhoea, dental surgery, urogenital tract disorders, musculoskeletal injuries.
For data set [5] the following is noted: rats; comparison with other drugs.
For data set [6] the following is noted: 200 mg twice daily, granular formulation; versus naproxen 500 mg twice daily; Toscani et al. 1993.
For data set [7] the following is noted: 200 mg twice daily, rectally; Coscarelli et al. 1993.

Regarding `CS(=O)(=O)Nc1ccc([N+](=O)[O-])cc1Oc1ccccc1` [Nimesulide, 4'-Nitro-2'-phenoxymethanesulphonanilide], in data set [1], the adverse reaction result is listed as “no adverse reaction”; the “pain, oedema, hyperaemia and fever” value is “significantly less pain, oedema and hyperaemia and resolution of mild fever”. In addition, the ulcerogenic result in data set [2] was “less ulcerogenic than aspirin, indomethacin, naproxen, piroxicam and ibuprofen”. Moreover, the relief result in data set [3] is on record as “gave relief”. Further, in data set [4], the reducing clinical symptoms entry was “generally more effective than the usual therapeutic doses of naproxen, ibuprofen, ketoprofen mefenamic acid and suprofen”. Also, the antipyretic potency result in data set [5] was “superior antipyretic potency to indomethacin, ibuprofen, aspirin and paracetamol”. Further, the “analgesic efficacy (pain)” value in data set [6] is recorded as “similarly reduced pain with naproxen 500 mg twice daily”. Moreover, the relief of pain entry in data set [7] was “gave relief in the pain associated with postoperative inflammatory complications of ear, nose and throat surgery”.
